IC50, EC50 and melting point data for 14 compounds are collected here from US6686385B2, “Anhydro sugar derivatives of indolocarbazoles” (Bristol-Myers Squibb Company, priority 2000, dated 2004).

The test system of one data set is murine P388 cell line. Briefly: In vitro cell-based cytotoxicity / proliferation inhibition (XTT assay). To be noted: Mus musculus, 72 hrs incubation, absorbance at 450 nm. As for the experimental part: The proliferation inhibition activity against murine P388 cell line was measured as follow. […] The cells were incubated at 37° C. for 72 hrs at which time the tetrazolium dye, XTT, containing phenazine methosulfate was added. A dehydrogenase enzyme in live cells reduoes the XTT to a form that absorbs light at 450 nm which can be quantitated spectrophotometrically. The greater the absorbance the greater the number of live cells. The results are expressed as an IC50 which is the drug concentration required to inhibit cell proliferation (i.e. absorbance at 450 nm) to 50% of that of untreated control cells.
Background: Formazan colour is commonly taken as a measure of viable cells.

In a further data set the target is T1, human topoisomerase I (Homo sapiens, UniProt P11387).
T1 construct: purchased Topogen
T1 sequence (P11387 1-765): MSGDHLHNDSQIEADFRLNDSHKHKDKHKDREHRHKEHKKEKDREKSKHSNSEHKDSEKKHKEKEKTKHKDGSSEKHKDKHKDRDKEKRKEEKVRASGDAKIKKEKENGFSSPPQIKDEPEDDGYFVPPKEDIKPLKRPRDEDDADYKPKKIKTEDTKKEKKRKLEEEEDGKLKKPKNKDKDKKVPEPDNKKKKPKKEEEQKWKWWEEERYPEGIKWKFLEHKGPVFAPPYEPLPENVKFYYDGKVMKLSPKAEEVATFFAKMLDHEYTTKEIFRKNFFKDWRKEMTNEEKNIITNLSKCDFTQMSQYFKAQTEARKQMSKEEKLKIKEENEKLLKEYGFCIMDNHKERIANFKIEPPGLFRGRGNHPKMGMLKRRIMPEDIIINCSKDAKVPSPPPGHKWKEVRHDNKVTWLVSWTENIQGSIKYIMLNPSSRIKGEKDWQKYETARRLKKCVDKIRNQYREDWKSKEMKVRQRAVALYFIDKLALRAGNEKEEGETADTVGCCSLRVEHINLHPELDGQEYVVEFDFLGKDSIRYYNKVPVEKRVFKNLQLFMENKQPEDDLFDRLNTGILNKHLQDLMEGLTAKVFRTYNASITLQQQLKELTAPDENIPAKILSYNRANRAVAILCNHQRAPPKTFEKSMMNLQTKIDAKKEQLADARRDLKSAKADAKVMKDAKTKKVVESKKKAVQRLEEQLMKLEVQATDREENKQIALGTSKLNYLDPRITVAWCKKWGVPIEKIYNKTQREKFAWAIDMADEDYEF
Briefly: Topoisomerase I activity (in vitro): compound-induced, topoisomerase I-mediated single strand breaks in PM2 DNA. It counts as biochemical. As to conditions: purified human topoisomerase I (Topogen), 30 minutes at 37° C., median effective concentration for inducing single strand breaks, read-out: TOPO I EC50. As for the experimental part: Topoisomerase I activity was measured as described below: The procedure for assaying compound-induced, topoisomerase I-mediated single strand breaks in DNA was essentially that described by Hsiang, et al., (J. Biol. Chem. 1985, 260,14873-14878). Samples dissolved in 100% DMSO as either […] or 10 mg/ml solutions, unless otherwise stated, were diluted in Tris-EDTA buffer. Marine bacteriophage PM2 DNA (Boehringer Mannheim) was also diluted in Tris-EDTA buffer to a concentration of 0.02 μg/μl. Different dilutions of compound being evaluated were mixed with diluted DNA and this mixture was added to 1000 unit (one unit of enzyme activity is defined as the amount capable of relaxing 100 ng of supercoiled DNA in approximately 30 minutes at 37° C.) aliquots of purified human topoisomerase I (Topogen) in 2×reaction buffer to start the reaction. The compound—DNA—enzyme mixture was incubated for 30 minutes at 37° C. before stopping the reaction with warm stop buffer containing sodium dodecyl sulfate and proteinase K (Sigma). These mixtures were allowed to incubate at 37° C. for another 10 minutes, at which time the mixtures were removed from the waterbath and extracted with a 24:1 mixture of chloroform/isoamyl alcohol. Following centrifugation, aliquots of the aqueous phases were placed in wells of a 0.9% agarose (SeaKem) gel in Tris-borate buffer containing 0.5 μg/ml of ethidium bromide and subjected to electrophbresis for 15 hours to separate the different topological isomers and nicked and broken DNAs. After destaining the gel in water, the ethidium bromide stained DNA reaction products were visualized by exposing the gel to UV irradiation. Negatives of photographs of the irradiated gels were scanned with a densitometer and areas under the peaks were calculated in order to obtain percent-single strand DNA break formation for each sample. A median effective concentration(EC50) was obtained for each compound by interpolation between points of the resulting dose-effect curve which defines the potency of the compound for its effect in inducing topoisomerase I-mediated single strand breaks in DNA.

A word on the IC50: it is the midpoint of a concentration-inhibition curve. A high value points to lower potency. By EC50 is commonly meant the midpoint of the concentration-response curve. The compound `O=C1NC(=O)c2c1c1c3cc(F)ccc3[nH]c1c1c2c2cc(F)ccc2n1C1O[C@H](CF)[C@@H](F)[C@H]2O[C@@H]12` (stereo partly drawn) [Example 7, 3,9-Difluoro-12,13-dihydro-13-[(2,3-anhydro)-(4,6-difluoro)-β-D-glucopyranosyl]-5H-indolo[2,3-a]pyrrolo[3,4-c]carbazole-5,7(6H)-dione] registered an IC50 with murine P388 cell line of 493 nM. The EC50 at human topoisomerase I turned out to be 580 nM.

As to `O=C1NC(=O)c2c1c1c3cc(F)c(F)cc3[nH]c1c1c2c2cc(F)c(F)cc2n1[C@@H]1O[C@@H]2CO[C@@H](C2)[C@H]1O` [Example 16, 2,3,9,10-Tetrafluoro-12-(3,6-anhydro-4-deoxy-β-D-glucopyranosyl)-6,7,12,13-tetrahydro(5H)indolo[2,3-a]pyrrolo[3,4-c]carbazole-5,7-dione], the IC50 with murine P388 cell line stood at 310 nM.

On to `O=C1c2c(c3c4cc(F)ccc4n(C4O[C@H]5[C@H](OC[C@H]5O)[C@H]4O)c3c3[nH]c4ccc(F)cc4c23)C(=O)N1O` (stereo partly drawn) [Example 6, 3,9-Difluoro-12,13-dihydro-13-[(2,6-dihydroxy)-(4,8-dioxa)-bicyclo[3.3.0]oct-3-yl]-5H-indolo[2,3-a]pyrrolo[3,4-c]carbazole-5,7(6-N-hydroxyl)-dione], for which half-maximal inhibition in the data set on murine P388 cell line (IC50) required 14.1 nM. The EC50 on human topoisomerase I was 10 nM.

As for `O=C1NC(=O)c2c1c1c3cc(F)ccc3[nH]c1c1c2c2cc(F)ccc2n1[C@@H]1O[C@@H]2CO[C@H]([C@H]1O)[C@H]2O` [Example 18, 3,9-Difluoro-12,13-dihydro-13-[(3,6-anhydro)-β-D-galactopyranosyl]-5H-indolo[2,3-a]pyrrolo[3,4-c]carbazole-5,7(6H)-dione], the IC50 in the data set on murine P388 cell line was 123 nM. Moreover, on human topoisomerase I, the EC50 was 180 nM.

Usually melting point stands for the temperature of the solid-liquid transition. Regarding `O=C1NC(=O)c2c1c1c3cc(F)ccc3sc1c1c2c2cc(F)ccc2n1[C@H]1O[C@@H]2CO[C@H]([C@H]1O)[C@@H]2O` [Example 13, 3,9-Difluoro-13-(3,6-anhydro-α-D-glucopyranosyl)-5H,13H-benzo[β]thienyl[2,3-a]pyrrolo[3,4-c]carbazole-5,7(6H)-dione], the melting point is above 305 °C. Moreover, the IC50 in the data set on murine P388 cell line was found to be 23.2 nM. Besides, the concentration for a half-maximal effect (EC50) on human topoisomerase I came out at 110 nM.

In turn, `O=C1NC(=O)c2c1c1c3cc(F)ccc3[nH]c1c1c2c2cc(F)ccc2n1C1O[C@H](CO)[C@H]2O[C@H]2[C@H]1O` (stereo partly drawn) [Example 8, 3,9-Difluoro-12,13-dihydro-13-[(3,4-anhydro)-β-D-glucopyranosyl]-5H-indolo[2,3-a]pyrrolo[3,4-c]carbazole-5,7(6H)-dione] had an IC50 in the data set with murine P388 cell line of 5.3 nM. Further, at human topoisomerase I, the EC50 amounted to 18 nM.

Regarding `NN1C(=O)c2c(c3c4cc(F)ccc4n([C@@H]4OC5COC([C@@H]5O)[C@H]4O)c3c3[nH]c4ccc(F)cc4c23)C1=O` (stereo partly drawn) [Example 4, 3,9-Difluoro-12,13-dihydro-13-[(3,6-anhydro)-β-D-glucopyranosyl]-5H-indolo[2,3-a]pyrrolo[3,4-c]carbazole-5,7(6-N-amino)-dione], the IC50 with murine P388 cell line is below 3 nM. Further, the EC50 at human topoisomerase I came to 10 nM.

For the compound `O=C1c2c(c3c4cc(F)ccc4n([C@@H]4OC5COC([C@@H]5O)[C@H]4O)c3c3[nH]c4ccc(F)cc4c23)C(=O)N1O` (stereo partly drawn) [Example 3, 3,9-Difluoro-12,13-dihydro-13-[(3,6-anhydro)-β-D-glucopyranosyl]-5H-indolo[2,3-a]pyrrolo[3,4-c]carbazole-5,7(6-N-hydroxyl)-dione], half-maximal inhibition in the data set on murine P388 cell line (IC50) required 14.6 nM. In addition, on human topoisomerase I, the EC50 came out at 14 nM.

In the data set on murine P388 cell line, `O=C1NC(=O)c2c1c1c3cc(F)ccc3[nH]c1c1c2c2cc(F)ccc2n1[C@@H]1OC2COC(C2)C1O` (stereo partly drawn) [Example 11, 3,9-Difluoro-12,13-dihydro-13-[(3,6-anhydro-4-deoxy)-β-D-glucopyranosyl]-5H-indolo[2,3-a]pyrrolo[3,4-c]carbazole-5,7(6H)-dione] had an IC50 of 70 nM. In addition, the EC50 on human topoisomerase I stood at 130 nM.

Regarding `O=C1NC(=O)c2c1c1c3ccc(F)cc3[nH]c1c1c2c2ccc(F)cc2n1[C@@H]1O[C@H](CO)[C@H]2O[C@H]2[C@H]1O` [Example 12], the melting point was above 300 °C. The IC50 with murine P388 cell line came out at 107 nM. Besides, the EC50 at human topoisomerase I was found to be 580 nM.

As to `O=C1NC(=O)c2c1c1c3cc(F)ccc3[nH]c1c1c2c2cc(F)ccc2n1[C@H]1OC2COC([C@@H]2O)[C@H]1O` (stereo partly drawn) [Example 2, 3,9-Difluoro-12,13-dihydro-13-[(3,6-anhydro)-α-D-glucopyranosyl]-5H-indolo[2,3-a]pyrrolo[3,4-c]carbazole-5,7(6H)-dione], 38.8 nM corresponded to half-maximal inhibition in the data set with murine P388 cell line (IC50). Moreover, the EC50 on human topoisomerase I worked out at 360 nM.

`O=C1NC(=O)c2c1c1c3cc(F)c(F)cc3[nH]c1c1c2c2cc(F)c(F)cc2n1[C@@H]1O[C@@H]2CO[C@H]([C@H]1O)C2(F)F` [Example 17, 2,3,9,10-Tetrafluoro-12-(3,6-anhydro-4-deoxy-4,4-difluoro-β-D-glucopyranosyl)-6,7,12,13-tetrahydro(5H)indolo[2,3-a]pyrrolo[3,4-c]carbazole-5,7-dione] returned an IC50 with murine P388 cell line of 240 nM. Also, the EC50 on human topoisomerase I was found to be 15000 nM.

`O=C1NC(=O)c2c1c1c3ccc(F)cc3[nH]c1c1c2c2ccc(F)cc2n1[C@@H]1O[C@@H]2CO[C@H]([C@H]1O)[C@@H]2O` [Example 14, 12-(3,6-Anhydro-β-D-glucopyranosyl)-2,10-difluoro-12,13-dihydro-5H-indolo[2,3-a]pyrrolo[3,4-c]carbazole-5,7(6H)-dione] came in with a melting point above 300 °C. For the same compound, in the data set on murine P388 cell line, the IC50 stood at 6220 nM. Moreover, at human topoisomerase I, the EC50 stood at 5500 nM.

Consider `O=C1NC(=O)c2c1c1c3cc(F)ccc3[nH]c1c1c2c2cc(F)ccc2n1[C@@H]1OC2COC(C2O)C1O` (stereo partly drawn) [Example 1, 3,9-Difluoro-12,13-dihydro-13-[(3,6-anhydro)-β-D-glucopyranosyl]-5H-indolo[2,3-a]pyrrolo[3,4-c]carbazole-5,7(6H)-dione], for which the half-inhibitory concentration (IC50) in the data set on murine P388 cell line stood at 93 nM. For the same compound, on human topoisomerase I, the EC50 stood at 85 nM.
